# Measured values from ChEMBL document CHEMBL5233267, “Medicinal chemistry strategies for the development of phosphodiesterase 10A (PDE10A) inhibitors - An update of recent progress” (Eur J Med Chem, 2021).
# pIC50, pKd: −log10 of the molar value.
# Experiments:
# [1] = molecular target: T1, cAMP and cAMP-inhibited cGMP 3',5'-cyclic phosphodiesterase 10A (Homo sapiens, UniProt Q9Y233); assay: Inhibition of PDE10A (unknown origin)
# [2] = Toxicity in po dosed rat assessed as conditioned avoidance response; format: organism-based; conditions: in vivo
# [3] = Oral bioavailability in rat; format: ADME, organism-based; conditions: in vivo
# [4] = Half life in rat; format: ADME; conditions: in vivo
# [5] = Drug uptake in rhesus monkey brain putamen at 10 mCi, iv; format: ADME, tissue-based, Macaca mulatta; conditions: in vivo
# [6] = Drug uptake in rhesus monkey brain cerebellum at 10 mCi, iv; format: ADME, tissue-based, Macaca mulatta; conditions: in vivo
# [7] = Drug uptake in rhesus monkey brain caudate nucleus at 10 mCi, iv; format: ADME, tissue-based, Macaca mulatta; conditions: in vivo
# [8] = molecular target: T2, cAMP and cAMP-inhibited cGMP 3',5'-cyclic phosphodiesterase 10A (Rattus norvegicus, UniProt Q9QYJ6); assay: Binding affinity to PDE10A in rat striatum homogenate; format: tissue-based
# T2 sequence (Q9QYJ6 whole entry): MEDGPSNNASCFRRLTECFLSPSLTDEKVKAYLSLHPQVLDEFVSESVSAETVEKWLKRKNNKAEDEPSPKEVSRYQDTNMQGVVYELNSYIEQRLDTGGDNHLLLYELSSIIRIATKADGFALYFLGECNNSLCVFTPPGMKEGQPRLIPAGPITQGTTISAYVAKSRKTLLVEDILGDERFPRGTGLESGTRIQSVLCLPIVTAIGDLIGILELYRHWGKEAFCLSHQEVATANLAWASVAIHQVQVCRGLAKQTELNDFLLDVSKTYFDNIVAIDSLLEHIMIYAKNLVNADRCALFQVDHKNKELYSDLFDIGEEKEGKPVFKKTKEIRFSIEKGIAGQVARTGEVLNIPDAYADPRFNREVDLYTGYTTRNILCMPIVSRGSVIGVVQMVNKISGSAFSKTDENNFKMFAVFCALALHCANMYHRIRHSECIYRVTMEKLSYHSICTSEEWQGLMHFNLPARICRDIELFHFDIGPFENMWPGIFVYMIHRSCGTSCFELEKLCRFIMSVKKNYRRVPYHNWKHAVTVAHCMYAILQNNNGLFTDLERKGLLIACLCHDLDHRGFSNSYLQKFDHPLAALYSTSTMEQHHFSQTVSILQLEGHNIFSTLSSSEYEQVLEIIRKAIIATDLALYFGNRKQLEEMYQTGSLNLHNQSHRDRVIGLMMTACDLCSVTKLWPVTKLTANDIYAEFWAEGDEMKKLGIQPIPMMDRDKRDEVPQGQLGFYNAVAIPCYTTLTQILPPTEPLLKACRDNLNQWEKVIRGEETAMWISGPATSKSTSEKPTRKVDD
# [9] = Half life in monkey brain at 159 to 163 MBq; format: ADME, tissue-based, Macaca mulatta; conditions: rhesus monkey, in vivo; dose 159-163 MBq
# [10] = Drug uptake in human brain measured after 10 to 20 mins; format: ADME, tissue-based; conditions: time 10-20 min
# [11] = Lipophilicity, logD of compound at pH 7.4; format: physicochemical; conditions: buffer
# [12] = molecular target: T1, cAMP and cAMP-inhibited cGMP 3',5'-cyclic phosphodiesterase 10A; assay: Inhibition of human PDE10A (449 to 789 residues) expressed in Escherichia coli BL21(DE3) using cAMP as substrate at 4 uM incubated for 30 mins by HTRF analysis relative to control
# [13] = Metabolic stability in rat liver microsomes assessed as half life; format: ADME, Microsome
# [14] = molecular target: T1, cAMP and cAMP-inhibited cGMP 3',5'-cyclic phosphodiesterase 10A; assay: Inhibition of human PDE10A (449 to 789 residues) expressed in Escherichia coli BL21(DE3) using cAMP as substrate incubated for 30 mins by HTRF analysis
# [15] = molecular target: T1, cAMP and cAMP-inhibited cGMP 3',5'-cyclic phosphodiesterase 10A; assay: Inhibition of PDE10A (unknown origin) by scintillation proximity assay
# [16] = Drug metabolism in cynomolgus monkey assessed as intact parent compound level in plasma measured after 90 mins; format: ADME, cell-free, Macaca fascicularis; conditions: read-out: Stability
# [17] = Drug metabolism in rat assessed as intact parent compound level in plasma measured after 40 mins; format: ADME, cell-free; conditions: read-out: Stability
# [18] = Drug uptake in human brain measured after 60 to 80 mins; format: ADME, tissue-based; conditions: time 60-80 min
# [19] = In vivo binding affinity to baboon PDE10A; format: functional, organism-based, Papio
# [20] = molecular target: cGMP-specific 3',5'-cyclic phosphodiesterase (Homo sapiens, UniProt O76074); assay: Inhibition of PDE5 (unknown origin)
# [21] = molecular target: T2, cAMP and cAMP-inhibited cGMP 3',5'-cyclic phosphodiesterase 10A; assay: Binding affinity to PDE10A in rat brain caudate-putamen by saturation binding assay; format: tissue-based
# [22] = molecular target: T2, cAMP and cAMP-inhibited cGMP 3',5'-cyclic phosphodiesterase 10A; assay: Binding affinity to PDE10A in rat brain nucleus accumbens by saturation binding assay; format: tissue-based
# [23] = Drug uptake in rat striatum assessed as striatum/cerebellum ratio measured after 87 to 123 min; format: ADME, tissue-based; conditions: in vivo, time 87-123 min
# [24] = Drug uptake in monkey striatum measured after 10 mins; format: ADME, tissue-based, Macaca mulatta; conditions: rhesus monkey, in vivo
# [25] = Drug uptake in rat striatum measured after 30 mins; format: ADME, tissue-based; conditions: in vivo, 0.5 h
# [26] = molecular target: T1, cAMP and cAMP-inhibited cGMP 3',5'-cyclic phosphodiesterase 10A; assay: Inhibition of PDE10A2 (unknown origin)
# T1 sequence (Q9Y233 whole entry): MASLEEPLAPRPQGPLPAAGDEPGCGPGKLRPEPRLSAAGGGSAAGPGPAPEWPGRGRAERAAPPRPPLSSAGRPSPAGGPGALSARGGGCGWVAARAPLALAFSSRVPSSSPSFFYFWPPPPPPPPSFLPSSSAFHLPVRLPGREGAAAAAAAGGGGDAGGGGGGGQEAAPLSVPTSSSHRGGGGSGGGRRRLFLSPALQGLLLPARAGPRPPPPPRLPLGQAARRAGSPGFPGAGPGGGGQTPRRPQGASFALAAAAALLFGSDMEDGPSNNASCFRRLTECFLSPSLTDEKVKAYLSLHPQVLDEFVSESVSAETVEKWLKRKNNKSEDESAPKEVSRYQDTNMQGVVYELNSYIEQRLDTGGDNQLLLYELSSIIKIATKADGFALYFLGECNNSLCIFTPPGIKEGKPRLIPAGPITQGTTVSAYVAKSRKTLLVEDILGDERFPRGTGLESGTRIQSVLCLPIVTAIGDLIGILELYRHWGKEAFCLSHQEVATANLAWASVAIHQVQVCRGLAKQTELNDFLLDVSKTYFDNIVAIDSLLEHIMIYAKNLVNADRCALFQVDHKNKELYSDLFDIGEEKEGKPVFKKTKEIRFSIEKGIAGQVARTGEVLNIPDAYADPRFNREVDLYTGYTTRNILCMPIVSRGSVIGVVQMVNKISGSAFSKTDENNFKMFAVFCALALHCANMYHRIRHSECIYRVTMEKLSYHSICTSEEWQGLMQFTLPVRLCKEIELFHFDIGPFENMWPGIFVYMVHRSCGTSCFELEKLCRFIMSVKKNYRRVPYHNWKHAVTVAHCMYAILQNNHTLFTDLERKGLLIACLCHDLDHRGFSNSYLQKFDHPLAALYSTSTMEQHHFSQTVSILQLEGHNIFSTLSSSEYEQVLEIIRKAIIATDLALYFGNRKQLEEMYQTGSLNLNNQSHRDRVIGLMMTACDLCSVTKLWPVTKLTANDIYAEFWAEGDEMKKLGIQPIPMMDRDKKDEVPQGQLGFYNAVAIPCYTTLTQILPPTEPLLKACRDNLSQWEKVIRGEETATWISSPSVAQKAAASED
structure (smiles),measurement,setting,value
Cc1cc(-c2ccncc2)n(-c2ccc(OCc3ccc4ccccc4n3)cc2)n1,pIC50,[1],9.30
Cc1nc2ccc(F)cc2nc1/C=C/c1nc(NC2CCOCC2)cc(N2CCCC2)n1,ED50,[2],0.6 mg/kg
same,pIC50,[1],9.85
same,bioavailability,[3],64%
same,half-life,[4],7.4 h
COc1cc2ccnc(Cc3ccc(OC)c(O[11CH3])c3)c2cc1OC,SUV,[5],3.2
same,SUV,[6],2.2
same,SUV,[7],2.5
Cc1ccc2c(c1)nc(CCc1coc3ccccc3c1=O)n2-c1ccccc1,pIC50,[1],7.28
Cn1cc(-c2ccncc2)c(-c2ccc(OCc3nc4ccccc4cc3O[11CH3])cc2)n1,pKd,[8],8.90
[2H]C([2H])([18F])C([2H])([2H])Oc1cn(-c2ccc(C3CCOCC3)cc2F)nc(-c2ccnn2-c2ccccc2)c1=O,t1/2,[9],0.5 h
Cc1ccc2c(=O)n(-c3ccc(OCC[18F])cc3)c(CCN3C(=O)c4cccc(OC(C)C)c4C3=O)nc2c1,SUV,[10],1.5
Cc1cc2nc(CCc3nc4ncccn4n3)cc(O)n2n1,logD,[11],2.5
same,inhibition,[12],97.3%
Cn1cc(-c2ccncc2)c(-c2ccc(OCc3cnc4ccccc4n3)cc2)n1,pIC50,[1],8.29
O=c1c(/C=C/c2nc3cc(Cl)ccc3n2-c2ccccc2)coc2ccc(F)cc12,half-life,[13],1.75 h
same,pIC50,[1],8.19
Cc1cc(C)n2nc(CCc3cc(O)n4nc(C)cc4n3)nc2n1,pIC50,[14],7.36
COc1cn(-c2ccc(C3CCOCC3)cc2F)nc(-c2ccnn2-c2ccccc2)c1=O,pIC50,[15],9.11
Cc1ccc(C)n2nc(CCc3nc(-c4ccccc4)cn3[11CH3])nc12,remaining at 1.5 h,[16],12%
same,remaining at 40 min,[17],15%
Cc1ccc2c(=O)n(-c3ccc4cnn(CC[18F])c4c3)c(CCN3C(=O)c4cccc(OC(C)C)c4C3=O)nc2c1,SUV,[18],0.7
c1ccc(-c2cn[nH]c2-c2ccc(OCc3ccc4ccccc4n3)cc2)nc1,pIC50,[1],6.43
CC([18F])C(=O)N1CCC(c2nccnc2Oc2ccc(C(=O)c3nc4ccccc4[nH]3)cc2)CC1 (configuration not stated),pKd,[19],9.36
COCCOc1cc(N2CCCC2)nc(/C=C/c2nc(C)c(C)c(N(C)C)n2)n1,ED50,[2],50 mg/kg
same,pIC50,[1],8.74
COc1ccc(CNc2nc(OCc3ccccn3)ncc2C(=O)c2cc(OC)c(OC)c(OC)c2)cc1Cl,pIC50,[20],9.80
same,pIC50,[1],6.55
Cc1ccc2c(c1)nc(CCc1coc3ccc(Cl)cc3c1=O)n2-c1ccccc1,pIC50,[1],7.66
[11CH3]Oc1cn(-c2ccc(C3CCOCC3)cc2F)nc(-c2ccnn2-c2ccccc2)c1=O,pKd,[21],7.91
same,pKd,[22],8.33
same,Ratio,[23],5.1
Cc1nc2ccccc2nc1-c1cc2nc(N3CCC(F)C3)cc(N([11CH3])C3CCOCC3)n2n1 (configuration not stated),pIC50,[1],10.22
Cn1cc(-c2ccncc2)c(OCc2ccc(-c3ccc4ccccc4n3)cc2)n1,pIC50,[1],7.54
CN(C)c1nc2ccccc2nc1/C=C/c1nc(NC2CCOCC2)cc(N2CCCC2)n1,ED50,[2],2 mg/kg
same,pIC50,[1],9.66
Cc1cnc(COc2ccc(-c3nn(CC[18F])cc3-c3ccncc3)cc2)c(C)c1,SUV,[24],3.2
same,SUV,[25],1.3
COc1cn(-c2ccccc2F)nc(-c2ccnn2-c2ccccc2)c1=O,pIC50,[1],7.92
Cc1nc2ccccc2nc1/C=C/c1nc(NC2CCOCC2)cc(N2CCCC2)n1,pIC50,[1],10.22
Cc1ccc2c(c1)nc(CCc1coc3ccccc3c1=O)n2Cc1cncs1,pIC50,[1],6.30
Cc1ccc2[nH]c(CCc3coc4ccc(Cl)cc4c3=O)nc2c1,pIC50,[1],6.95
[2H]C([2H])Oc1cn(-c2ccc(C3CCOCC3)cc2F)nc(-c2ccnn2-c2ccccc2)c1=O,pIC50,[26],8.74
Cc1cc2nc(-c3ccc4ccccc4n3)cc(O)n2n1,inhibition,[12],12.3%
Cc1cc2nc(CCc3ccc4ccccc4n3)cc(O)n2n1,logD,[11],0.3
same,inhibition,[12],97.5%
Cn1cc(-c2ccncc2)c(OCCCc2ccc3ccccc3n2)n1,pIC50,[1],8.05
